Reference: US9561231B2 (AbbVie Inc., priority 2012, dated 2017)

Columns and labels:
[1] = target: T1, first (BD1: amino acids K57-E168) bromodomain of BRD4 (Homo sapiens, UniProt O60885); experiment: TR-FRET bromodomain binding assay, BRD4 BD1; details: TR-FRET assay protocol (A-G, compound concentration range); Ki calculated from IC50, probe Kd and probe concentration; read-out: TR-FRET Binding Ki: BRD4 (BDI_K57-E168)
T1 construct: His-tagged first (BD1: amino acids K57-E168)
Outline: (§1)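 Compounds were serially diluted in DMSO, diluted into pH 6.0 phosphate buffer with NaCl, EDTA, Triton X-100 and DTT, then combined with His-tagged bromodomain and an Alexa647-labeled BET-inhibitor probe. TR-FRET was read, percent inhibition fitted to give IC50, and Ki derived using probe Kd.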

[2] = system: breast cancer cell line MX-1; experiment: MX-1 cell line proliferation assay (3-day); type: cell-based; details: Homo sapiens, MX1; MX-1 cells, 72 h incubation, Cell Titer Glo; read-out: Cellular proliferation: EC50
Outline: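 EC50 derived by sigmoidal fitting of Cell Titer Glo signal relative to DMSO controls. Compound, 3 μM down to 0.0001 μM final in 3-fold steps, was added to adhered MX-1 cells (5000/well, RPMI + 10% FBS) for a 3-day incubation at 37° C.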

[3] = target: T2, second (BD2: amino acids E352-E168) bromodomain of BRD4 (Homo sapiens, UniProt O60885); experiment: TR-FRET bromodomain binding assay, BRD4 BD2; details: TR-FRET assay protocol (A-G, compound concentration range); Ki calculated from IC50, probe Kd and probe concentration; read-out: TR-FRET Binding Ki: BRD4 (BDII_E352-M457)
T2 construct: protocol
Outline: as §1

Compound	Ki [1]	EC50 [2]	Ki [3]
CCS(=O)(=O)Nc1ccc(Oc2ccc(F)cc2F)c(-c2cn(C)c(=O)cc2-c2ccc(N3CCOCC3)cc2)c1 [Example 284, N-[4-(2,4-difluorophenoxy)-3-{1-methyl-4-[4-(morpholin-4-yl)phenyl]-6-oxo-1,6-dihydropyridin-3-yl]phenyl}ethanesulfonamide]	0.00575 µM	0.0443 µM	0.00184 µM
CCS(=O)(=O)Nc1ccc(Oc2ccc(F)cc2F)c(-c2cn(C)c(=O)cc2OCCN2CCOCC2)c1 [Example 286, N-[4-(2,4-difluorophenoxy)-3-{1-methyl-4-[2-(morpholin-4-yl)ethoxy]-6-oxo-1,6-dihydropyridin-3-yl]phenyl}ethanesulfonamide]	0.0826 µM	> 3 µM	0.0759 µM
CCS(=O)(=O)Nc1ccc(Oc2ccc(F)cc2F)c(-c2cn(C)c(=O)cc2OC(C)C)c1 [Example 289, N-{4-(2,4-difluorophenoxy)-3-[1-methyl-6-oxo-4-(propan-2-yloxy)-1,6-dihydropyridin-3-yl]phenyl}ethanesulfonamide]	0.00631 µM	0.077 µM	0.000639 µM
CCS(=O)(=O)Nc1ccc(Oc2ccc(F)cc2F)c(-c2cn(C)c(=O)cc2OCC(C)C)c1 [Example 290, N-{4-(2,4-difluorophenoxy)-3-[1-methyl-4-(2-methylpropoxy)-6-oxo-1,6-dihydropyridin-3-yl]phenyl}ethanesulfonamide]	0.012 µM	0.138 µM	0.00322 µM
CCOc1cc(=O)n(C)cc1-c1cc(NC(=O)c2ccc(COc3ccccc3)cc2)ccc1Oc1ccc(F)cc1F [Example 297, N-[4-(2,4-difluorophenoxy)-3-(4-ethoxy-1-methyl-6-oxo-1,6-dihydropyridin-3-yl)phenyl]-4-(phenoxymethyl)benzamide]	> 0.238 µM	2.42 µM	0.256 µM
C=CC#Cc1ccccc1Oc1ccc(S(=O)(=O)CC)cc1-c1cn(C)c(=O)cc1O [Example 313, 5-{2-[2-(but-3-en-1-yn-1-yl)phenoxy]-5-(ethylsulfonyl)phenyl}-4-hydroxy-1-methylpyridin-2(1H)-one]	0.754 µM	1.33 µM	0.0552 µM
CCS(=O)(=O)Nc1ccc(Oc2ccc(F)cc2F)c(-c2cn(C)c(=O)cc2OC2COC2)c1 [Example 316, N-{4-(2,4-difluorophenoxy)-3-[1-methyl-4-(oxetan-3-yloxy)-6-oxo-1,6-dihydropyridin-3-yl]phenyl}ethanesulfonamide]	0.0039 µM	0.0247 µM	0.000809 µM
CCS(=O)(=O)Nc1ccc(Oc2ccc(F)cc2F)c(-c2cn(C)c(=O)cc2OC2CCN(C(=O)OC(C)(C)C)CC2)c1 [Example 319, tert-butyl 4-[(5-{2-(2,4-difluorophenoxy)-5-[(ethylsulfonyl)amino]phenyl}-1-methyl-2-oxo-1,2-dihydropyridin-4-yl)oxy]piperidine-1-carboxylate]	0.316 µM	0.322 µM	0.104 µM
CCS(=O)(=O)Nc1ccc(Oc2ccc(F)cc2F)c(-c2cn(C)c(=O)cc2O[C@H]2CC[C@H](N(C)C)CC2)c1 [Example 321, N-[4-(2,4-difluorophenoxy)-3-(4-{[trans-4-(dimethylamino)cyclohexyl]oxy}-1-methyl-6-oxo-1,6-dihydropyridin-3-yl)phenyl]ethanesulfonamide]	0.05 µM	0.423 µM	0.00915 µM
CCS(=O)(=O)Nc1ccc(Oc2ccc(F)cc2F)c(-c2cn(C)c(=O)cc2OC2CC3(C2)CN(C(=O)OC(C)(C)C)C3)c1 [Example 325, tert-butyl 6-[(5-{2-(2,4-difluorophenoxy)-5-[(ethylsulfonyl)amino]phenyl}-1-methyl-2-oxo-1,2-dihydropyridin-4-yl)oxy]-2-azaspiro[3.3]heptane-2-carboxylate]	0.0306 µM	0.101 µM	0.0214 µM
CCS(=O)(=O)Nc1ccc(Oc2ccc(F)cc2F)c(-c2cn(C)c(=O)cc2OC2CC3(CNC3)C2)c1 [Example 326, N-{3-[4-(2-azaspiro[3.3]hept-6-yloxy)-1-methyl-6-oxo-1,6-dihydropyridin-3-yl]-4-(2,4-difluorophenoxy)phenyl}ethanesulfonamide]	0.00261 µM	2.98 µM	0.0175 µM

Continued by falling Ki [1], values first:

Ki [1]	EC50 [2]	Ki [3]	Compound
0.437 µM	> 3 µM	0.0909 µM	CCS(=O)(=O)Nc1ccc(Oc2ccc(F)cc2F)c(-c2cn(C)c(=O)cc2OC2CCNCC2)c1 [Example 322, N-{4-(2,4-difluorophenoxy)-3-[1-methyl-6-oxo-4-(piperidin-4-yloxy)-1,6-dihydropyridin-3-yl]phenyl}ethanesulfonamide]
0.156 µM	0.0427 µM	0.0153 µM	CCS(=O)(=O)c1ccc(Oc2ccc(F)cc2F)c(-c2cn(C)c(=O)cc2OC2COC2)c1 [Example 318, 5-[2-(2,4-difluorophenoxy)-5-(ethylsulfonyl)phenyl]-1-methyl-4-(oxetan-3-yloxy)pyridin-2(1H)-one]
0.15 µM	1.14 µM	0.101 µM	CCS(=O)(=O)Nc1ccc(Oc2ccc(F)cc2F)c(-c2cn(C)c(=O)cc2OCC2CCN(C)C2)c1 (stereo not drawn) [Example 323, N-[4-(2,4-difluorophenoxy)-3-{1-methyl-4-[(1-methylpyrrolidin-3-yl)methoxy]-6-oxo-1,6-dihydropyridin-3-yl]phenyl}ethanesulfonamide]
0.143 µM	0.637 µM	0.0545 µM	CCOc1cc(=O)n(C)cc1-c1cc(NC(=O)CCC(C)C)ccc1Oc1ccc(F)cc1F [Example 298, N-[4-(2,4-difluorophenoxy)-3-(4-ethoxy-1-methyl-6-oxo-1,6-dihydropyridin-3-yl)phenyl]-4-methylpentanamide]
0.045 µM	0.436 µM	0.0181 µM	CCS(=O)(=O)Nc1ccc(Oc2ccc(F)cc2F)c(-c2cn(C)c(=O)cc2OCC2CCN(C(=O)OC(C)(C)C)CC2)c1 [Example 324, tert-butyl 4-{[(5-{2-(2,4-difluorophenoxy)-5-[(ethylsulfonyl)amino]phenyl}-1-methyl-2-oxo-1,2-dihydropyridin-4-yl)oxy]methyl}piperidine-1-carboxylate]
0.0278 µM	> 3 µM	0.0083 µM	CCS(=O)(=O)Nc1ccc(Oc2ccc(C(N)=O)cc2)c(-c2cn(C)c(=O)cc2OCC(F)(F)F)c1 [Example 294, 4-{4-[(ethylsulfonyl)amino]-2-[1-methyl-6-oxo-4-(2,2,2-trifluoroethoxy)-1,6-dihydropyridin-3-yl]phenoxy}benzamide]
0.0256 µM	0.291 µM	0.0246 µM	CCOc1cc(=O)n(C)cc1-c1cc(NC(=O)c2ccc(NC(C)=O)cc2)ccc1Oc1ccc(F)cc1F [Example 300, 4-(acetylamino)-N-[4-(2,4-difluorophenoxy)-3-(4-ethoxy-1-methyl-6-oxo-1,6-dihydropyridin-3-yl)phenyl]benzamide]
0.0162 µM	0.112 µM	0.00627 µM	CCS(=O)(=O)Nc1ccc(Oc2ccc(F)cc2F)c(-c2cn(C)c(=O)cc2OCC2CCOC2)c1 (stereo not drawn) [Example 291, N-{4-(2,4-difluorophenoxy)-3-[1-methyl-6-oxo-4-(tetrahydrofuran-3-ylmethoxy)-1,6-dihydropyridin-3-yl]phenyl}ethanesulfonamide]
0.0071 µM	0.0727 µM	0.0146 µM	CCN(CC)CC#CCOc1cc(=O)n(C)cc1-c1cc(NS(=O)(=O)CC)ccc1Oc1ccc(F)cc1F [Example 328, N-[3-(4-{[4-(diethylamino)but-2-yn-1-yl]oxy}-1-methyl-6-oxo-1,6-dihydropyridin-3-yl)-4-(2,4-difluorophenoxy)phenyl]ethanesulfonamide]
0.00662 µM	0.0596 µM	0.00215 µM	CCS(=O)(=O)Nc1ccc(Oc2ccc(F)cc2F)c(-c2cn(C)c(=O)cc2OCC2CC2)c1 [Example 287, N-(3-(4-(cyclopropylmethoxy)-1-methyl-6-oxo-1,6-dihydropyridin-3-yl)-4-(2,4-difluorophenoxy)phenyl)ethanesulfonamide]
0.00298 µM	0.0227 µM	0.00171 µM	C/C=C/c1cc(=O)n(C)cc1-c1cc(NS(=O)(=O)CC)ccc1Oc1ccc(F)cc1F [Example 329, N-[4-(2,4-difluorophenoxy)-3-{1-methyl-6-oxo-4-[(1E)-prop-1-en-1-yl]-1,6-dihydropyridin-3-yl]phenyl}ethanesulfonamide]
0.00251 µM	0.0556 µM	0.00039 µM	CCS(=O)(=O)Nc1ccc(Oc2ccc(F)cc2F)c(-c2cn(C)c(=O)cc2OCc2ccc(CN3CCOCC3)cc2)c1 [Example 315, N-[4-(2,4-difluorophenoxy)-3-(1-methyl-4-{[4-(morpholin-4-ylmethyl)benzyl]oxy}-6-oxo-1,6-dihydropyridin-3-yl)phenyl]ethanesulfonamide]
0.00196 µM	0.0497 µM	0.000584 µM	CCS(=O)(=O)Nc1ccc(Oc2ccc(F)cc2F)c(-c2cn(C)c(=O)cc2-c2ccc(N3CCN(C)CC3)cc2)c1 [Example 330, N-[4-(2,4-difluorophenoxy)-3-{1-methyl-4-[4-(4-methylpiperazin-1-yl)phenyl]-6-oxo-1,6-dihydropyridin-3-yl}phenyl]ethanesulfonamide]
